Test results: PubChem BioAssay AID2060908 (Molecular Pharmacology Branch, DTP, NCI, 2025)

Tested on: 186277-243-T-J2-PDC complex spheroids, viability
Assay: Anticancer human tumor 186277-243-T-J2-PDC patient-derived colon adenocarcinoma cell line growth inhibition [RAS]
Details: for IC50: curve of first compound; for viability, T/C: stronger effect = lower value; active = viability on the fitted dose curve at most 10% of control; inactive = the rest
Procedure, shortened: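 Agents were tested in combination matrices in half-log decrements from a top concentration at or near clinical Cmax (10 microM if undetermined). Targets were multi-cell spheroids of tumour lines plus HUVEC and MSC stromal cells.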
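Also: spheroids exposed to compounds for 7 days before viability read.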

CC1(C)CCC(Nc2ncc(C(F)(F)F)c(-c3c[nH]c4c(P(C)(C)=O)c(C#N)ccc34)n2)CN1 (stereo unspecified) + CCn1c(-c2cc(N3CCN(C)CC3)cnc2C(C)OC)c2c3cc(ccc31)-c1csc(n1)CC(NC(=O)C1CC1C)C(=O)N1CCCC(N1)C(=O)OCC(C)(C)C2
inactive: viability, T/C (second compound 0.000949 µM, first compound 0.000949 µM) 103% | viability, T/C (second compound 0.000949 µM, first compound 0.003 µM) 104% | viability, T/C (second compound 0.000949 µM, first compound 0.00949 µM) 88% | viability, T/C (second compound 0.000949 µM, first compound 0.03 µM) 68.5% | viability, T/C (second compound 0.000949 µM, first compound 0.0949 µM) 49.8% | viability, T/C (second compound 0.000949 µM, first compound 0.3 µM) 43.3% | viability, T/C (second compound 0.003 µM, first compound 0.000949 µM) 96.8% | viability, T/C (second compound 0.003 µM, first compound 0.003 µM) 80.2% | viability, T/C (second compound 0.003 µM, first compound 0.00949 µM) 82.1% | viability, T/C (second compound 0.003 µM, first compound 0.03 µM) 55.1% | viability, T/C (second compound 0.003 µM, first compound 0.0949 µM) 37.4% | viability, T/C (second compound 0.003 µM, first compound 0.3 µM) 31.4% | viability, T/C (second compound 0.00949 µM, first compound 0.000949 µM) 48.1% | viability, T/C (second compound 0.00949 µM, first compound 0.003 µM) 42.9% | viability, T/C (second compound 0.00949 µM, first compound 0.00949 µM) 31.9% | viability, T/C (second compound 0.00949 µM, first compound 0.03 µM) 22.6% | viability, T/C (second compound 0.00949 µM, first compound 0.0949 µM) 18.2% | viability, T/C (second compound 0.00949 µM, first compound 0.3 µM) 18.2% | viability, T/C (second compound 0.03 µM, first compound 0.000949 µM) 14.1% | viability, T/C (second compound 0.03 µM, first compound 0.003 µM) 14% | viability, T/C (second compound 0.03 µM, first compound 0.00949 µM) 10.6% | viability, T/C (second compound 0.03 µM, first compound 0.03 µM) 9.74%
active: viability, T/C (second compound 0.03 µM, first compound 0.0949 µM) 10.6% | viability, T/C (second compound 0.03 µM, first compound 0.3 µM) 8.92% | viability, T/C (second compound 0.0949 µM, first compound 0.000949 µM) 7.13% | viability, T/C (second compound 0.0949 µM, first compound 0.003 µM) 6.88% | viability, T/C (second compound 0.0949 µM, first compound 0.00949 µM) 5.95% | viability, T/C (second compound 0.0949 µM, first compound 0.03 µM) 5.82% | viability, T/C (second compound 0.0949 µM, first compound 0.0949 µM) 6.47% | viability, T/C (second compound 0.0949 µM, first compound 0.3 µM) 5.47% | viability, T/C (second compound 0.3 µM, first compound 0.000949 µM) 5.71% | viability, T/C (second compound 0.3 µM, first compound 0.003 µM) 5.48% | viability, T/C (second compound 0.3 µM, first compound 0.00949 µM) 4.65% | viability, T/C (second compound 0.3 µM, first compound 0.03 µM) 4.88% | viability, T/C (second compound 0.3 µM, first compound 0.0949 µM) 4.85% | viability, T/C (second compound 0.3 µM, first compound 0.3 µM) 4.54%
< 0.949 nM: IC50 (second compound 0.00949 µM) | IC50 (second compound 0.03 µM) | IC50 (second compound 0.0949 µM) | IC50 (second compound 0.3 µM)
44.3 nM: IC50 (second compound 0.003 µM)
95.3 nM: IC50 (second compound 0.000949 µM)

CC1(C)CCC(Nc2ncc(C(F)(F)F)c(-c3c[nH]c4c(P(C)(C)=O)c(C#N)ccc34)n2)CN1 (stereo unspecified) + C#Cc1c(F)ccc2cc(O)cc(-c3ncc4c(N5CC6CCC(C5)N6)nc(OCC56CCCN5CC(F)C6)nc4c3F)c12
inactive: viability, T/C (second compound 0.0316 µM, first compound 0.000949 µM) 91.9% | viability, T/C (second compound 0.0316 µM, first compound 0.003 µM) 80.4% | viability, T/C (second compound 0.0316 µM, first compound 0.00949 µM) 60.4% | viability, T/C (second compound 0.0316 µM, first compound 0.03 µM) 55.8% | viability, T/C (second compound 0.0316 µM, first compound 0.0949 µM) 51.8% | viability, T/C (second compound 0.0316 µM, first compound 0.3 µM) 40.9% | viability, T/C (second compound 0.1 µM, first compound 0.000949 µM) 50% | viability, T/C (second compound 0.1 µM, first compound 0.003 µM) 67.4% | viability, T/C (second compound 0.1 µM, first compound 0.00949 µM) 55.4% | viability, T/C (second compound 0.1 µM, first compound 0.03 µM) 29% | viability, T/C (second compound 0.1 µM, first compound 0.0949 µM) 34.5% | viability, T/C (second compound 0.1 µM, first compound 0.3 µM) 26.1% | viability, T/C (second compound 0.316 µM, first compound 0.000949 µM) 27.9% | viability, T/C (second compound 0.316 µM, first compound 0.003 µM) 29.9% | viability, T/C (second compound 0.316 µM, first compound 0.00949 µM) 23% | viability, T/C (second compound 0.316 µM, first compound 0.03 µM) 15.9% | viability, T/C (second compound 0.316 µM, first compound 0.0949 µM) 15.2% | viability, T/C (second compound 0.316 µM, first compound 0.3 µM) 17.2% | viability, T/C (second compound 1 µM, first compound 0.000949 µM) 15.6% | viability, T/C (second compound 1 µM, first compound 0.003 µM) 16.5% | viability, T/C (second compound 1 µM, first compound 0.00949 µM) 13% | viability, T/C (second compound 1 µM, first compound 0.03 µM) 13.9% | viability, T/C (second compound 1 µM, first compound 0.0949 µM) 12.4% | viability, T/C (second compound 1 µM, first compound 0.3 µM) 11.5% | viability, T/C (second compound 3.16 µM, first compound 0.000949 µM) 12.4% | viability, T/C (second compound 3.16 µM, first compound 0.003 µM) 11.7% | viability, T/C (second compound 3.16 µM, first compound 0.00949 µM) 11% | viability, T/C (second compound 3.16 µM, first compound 0.03 µM) 12.5% | viability, T/C (second compound 3.16 µM, first compound 0.0949 µM) 11.2% | viability, T/C (second compound 3.16 µM, first compound 0.3 µM) 8.62%
12.1 nM: IC50 (second compound 0.1 µM)
active: viability, T/C (second compound 10 µM, first compound 0.000949 µM) 8.95% | viability, T/C (second compound 10 µM, first compound 0.003 µM) 9.05% | viability, T/C (second compound 10 µM, first compound 0.00949 µM) 7.62% | viability, T/C (second compound 10 µM, first compound 0.03 µM) 6.45% | viability, T/C (second compound 10 µM, first compound 0.0949 µM) 9.73% | viability, T/C (second compound 10 µM, first compound 0.3 µM) 7.54%
< 0.949 nM: IC50 (second compound 0.316 µM) | IC50 (second compound 1 µM) | IC50 (second compound 3.16 µM) | IC50 (second compound 10 µM)
69.8 nM: IC50 (second compound 0.0316 µM)

NC1c2ccccc2OC12CCN(c1cnc3c(N4CCCc5ncccc54)n[nH]c3n1)CC2 (stereo unspecified) + CCn1c(-c2cc(N3CCN(C)CC3)cnc2C(C)OC)c2c3cc(ccc31)-c1csc(n1)CC(NC(=O)C1CC1C)C(=O)N1CCCC(N1)C(=O)OCC(C)(C)C2
inactive: viability, T/C (second compound 0.000949 µM, first compound 0.0316 µM) 70.1% | viability, T/C (second compound 0.000949 µM, first compound 0.1 µM) 26.9% | viability, T/C (second compound 0.003 µM, first compound 0.0316 µM) 25.1%
54.2 nM: IC50 (second compound 0.000949 µM)
< 31.6 nM: IC50 (second compound 0.003 µM) | IC50 (second compound 0.00949 µM) | IC50 (second compound 0.03 µM) | IC50 (second compound 0.0949 µM) | IC50 (second compound 0.3 µM)
active: viability, T/C (second compound 0.000949 µM, first compound 0.316 µM) 6.05% | viability, T/C (second compound 0.000949 µM, first compound 1 µM) 3.49% | viability, T/C (second compound 0.000949 µM, first compound 3.16 µM) 2.69% | viability, T/C (second compound 0.000949 µM, first compound 10 µM) 2.5% | viability, T/C (second compound 0.003 µM, first compound 0.1 µM) 6.27% | viability, T/C (second compound 0.003 µM, first compound 0.316 µM) 3.3% | viability, T/C (second compound 0.003 µM, first compound 1 µM) 2.57% | viability, T/C (second compound 0.003 µM, first compound 3.16 µM) 2.3% | viability, T/C (second compound 0.003 µM, first compound 10 µM) 1.8% | viability, T/C (second compound 0.00949 µM, first compound 0.0316 µM) 7.02% | viability, T/C (second compound 0.00949 µM, first compound 0.1 µM) 3.42% | viability, T/C (second compound 0.00949 µM, first compound 0.316 µM) 2.63% | viability, T/C (second compound 0.00949 µM, first compound 1 µM) 1.94% | viability, T/C (second compound 0.00949 µM, first compound 3.16 µM) 1.79% | viability, T/C (second compound 0.00949 µM, first compound 10 µM) 1.61% | viability, T/C (second compound 0.03 µM, first compound 0.0316 µM) 3.98% | viability, T/C (second compound 0.03 µM, first compound 0.1 µM) 3.86% | viability, T/C (second compound 0.03 µM, first compound 0.316 µM) 2.26% | viability, T/C (second compound 0.03 µM, first compound 1 µM) 1.79% | viability, T/C (second compound 0.03 µM, first compound 3.16 µM) 3.5% | viability, T/C (second compound 0.03 µM, first compound 10 µM) 1.52% | viability, T/C (second compound 0.0949 µM, first compound 0.0316 µM) 3.58% | viability, T/C (second compound 0.0949 µM, first compound 0.1 µM) 2.71% | viability, T/C (second compound 0.0949 µM, first compound 0.316 µM) 2.03% | viability, T/C (second compound 0.0949 µM, first compound 1 µM) 1.94% | viability, T/C (second compound 0.0949 µM, first compound 3.16 µM) 1.81% | viability, T/C (second compound 0.0949 µM, first compound 10 µM) 1.53% | viability, T/C (second compound 0.3 µM, first compound 0.0316 µM) 3.17% | viability, T/C (second compound 0.3 µM, first compound 0.1 µM) 2.52% | viability, T/C (second compound 0.3 µM, first compound 0.316 µM) 1.83% | viability, T/C (second compound 0.3 µM, first compound 1 µM) 1.56% | viability, T/C (second compound 0.3 µM, first compound 3.16 µM) 1.77% | viability, T/C (second compound 0.3 µM, first compound 10 µM) 1.56%
